Experimental data from ChEMBL document CHEMBL1201862, “PubChem BioAssay data set” (2004).
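Step 1: Grow cells in 96-well plates. Step 2: Expose to compound for 48 hours at 5 concentrations. Step 3: Interpolate endpoints linearly; if unreached, use highest concentration. At the GI50, growth is halved.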 The source made the active and inactive calls. No stated cut-off is given here; in the data, active = GI50 up to about 1.1 µM and inactive = higher.

What was measured:
Assay in all cases: NCI anticancer screen, dose series, 48 h
TK-10 = tested on: TK-10
SNB-19 = tested on: SNB-19
UACC-257 = tested on: UACC-257
SK-MEL-28 = tested on: SK-MEL-28
UO-31 = tested on: UO-31
HCC 2998 = tested on: HCC 2998
OVCAR-8 = tested on: OVCAR-8
SK-OV-3 = tested on: SK-OV-3
CCRF-CEM = tested on: CCRF-CEM
M19-MEL = tested on: M19-MEL
RPMI-8226 = tested on: RPMI-8226
HL-60 = tested on: HL-60
SF-295 = tested on: SF-295
ACHN = tested on: ACHN
OVCAR-3 = tested on: OVCAR-3
RXF 393 = tested on: RXF 393
HOP-62 = tested on: HOP-62
DMS-114 = tested on: DMS-114
K562 = tested on: K562
SK-MEL-2 = tested on: SK-MEL-2
DMS-273 = tested on: DMS-273
MOLT-4 = tested on: MOLT-4
NCI-H23 = tested on: NCI-H23
A549 = tested on: A549
XF498 = tested on: XF498
LOX IMVI = tested on: LOX IMVI
SW-620 = tested on: SW-620
SK-MEL-5 = tested on: SK-MEL-5
M14 = tested on: M14
CAKI-1 = tested on: CAKI-1
SN12C = tested on: SN12C
HCT-116 = tested on: HCT-116
A498 = tested on: A498
LXFL 529 = tested on: LXFL 529
UACC-62 = tested on: UACC-62
IGROV-1 = tested on: IGROV-1
KM12 = tested on: KM12
KM-20L2 = tested on: KM-20L2
NCI-H460 = tested on: NCI-H460
SF-268 = tested on: SF-268
786-0 = tested on: 786-0
COLO 205 = tested on: COLO 205
U-251 = tested on: U-251
Malme-3M = tested on: Malme-3M
OVCAR-5 = tested on: OVCAR-5
DLD-1 = tested on: DLD-1
EKVX = tested on: EKVX
HT-29 = tested on: HT-29
OVCAR-4 = tested on: OVCAR-4
SR = tested on: SR
HOP-92 = tested on: HOP-92
NCI-H226 = tested on: NCI-H226
SNB-75 = tested on: SNB-75
SNB-78 = tested on: SNB-78
SF-539 = tested on: SF-539
NCI-H522 = tested on: NCI-H522
HCT-15 = tested on: HCT-15

In the case of `O=C1N=CN=C2C=CC(Cl)=C(I)C12` (stereo unspecified), the GI50 (TK-10) is reported as 80.9 µM (inactive), the GI50 (SNB-19) is reported as 47.9 µM (inactive) and the GI50 (UACC-257) is reported as > 100 µM (inactive). For the same molecule, the GI50 (SK-MEL-28) was > 100 µM (inactive), the GI50 (UO-31) was 26.2 µM (inactive) and the GI50 (HCC 2998) was > 100 µM (inactive). The GI50 (OVCAR-8) was > 100 µM (inactive), the GI50 (SK-OV-3) was 49.3 µM (inactive) and the GI50 (CCRF-CEM) was > 100 µM (inactive). The GI50 (M19-MEL) was > 100 µM (inactive), the GI50 (RPMI-8226) was 56.2 µM (inactive) and the GI50 (HL-60) was 93.5 µM (inactive). The GI50 (SF-295) was > 100 µM (inactive), the GI50 (ACHN) was 43.4 µM (inactive) and the GI50 (OVCAR-3) was 63 µM (inactive). For the same molecule, the GI50 (RXF 393) was 23.3 µM (inactive), the GI50 (HOP-62) was 67.5 µM (inactive) and the GI50 (DMS-114) was 84.7 µM (inactive). For the same molecule, the GI50 (K562) was > 100 µM (inactive), the GI50 (SK-MEL-2) was 81.5 µM (inactive) and the GI50 (DMS-273) was 73.8 µM (inactive). For the same molecule, the GI50 (MOLT-4) was 67.1 µM (inactive), the GI50 (NCI-H23) was 46.2 µM (inactive) and the GI50 (A549) was > 100 µM (inactive). For the same molecule, the GI50 (XF498) was 51.1 µM (inactive), the GI50 (LOX IMVI) was 56.1 µM (inactive) and the GI50 (SW-620) was > 100 µM (inactive). For the same molecule, the GI50 (SK-MEL-5) was 98.2 µM (inactive), the GI50 (M14) was > 100 µM (inactive) and the GI50 (CAKI-1) was 24.3 µM (inactive). The GI50 (SN12C) was > 100 µM (inactive), the GI50 (HCT-116) was 42.5 µM (inactive) and the GI50 (A498) was 85.3 µM (inactive). The GI50 (LXFL 529) was > 100 µM (inactive), the GI50 (UACC-62) was 45.3 µM (inactive) and the GI50 (IGROV-1) was 33.3 µM (inactive). The GI50 (KM12) was > 100 µM (inactive), the GI50 (KM-20L2) was > 100 µM (inactive) and the GI50 (NCI-H460) was 75.5 µM (inactive). For the same molecule, the GI50 (SF-268) was 20.2 µM (inactive), the GI50 (786-0) was > 100 µM (inactive) and the GI50 (COLO 205) was > 100 µM (inactive). For the same molecule, the GI50 (U-251) was 74.3 µM (inactive), the GI50 (Malme-3M) was > 100 µM (inactive) and the GI50 (OVCAR-5) was > 100 µM (inactive). For the same molecule, the GI50 (DLD-1) was 58.5 µM (inactive), the GI50 (EKVX) was 9.4 µM (inactive) and the GI50 (HT-29) was > 100 µM (inactive). For the same molecule, the GI50 (OVCAR-4) was > 100 µM (inactive) and the GI50 (SR) was 91.8 µM (inactive).
With `CN1C(=S)CSc2ccccc21` the GI50 (TK-10) was > 100 µM (inactive), the GI50 (SNB-19) was > 100 µM (inactive) and the GI50 (UACC-257) was > 100 µM (inactive). For the same molecule, the GI50 (SK-MEL-28) was > 100 µM (inactive), the GI50 (UO-31) was 42.3 µM (inactive) and the GI50 (OVCAR-8) was > 100 µM (inactive). The GI50 (SK-OV-3) was > 100 µM (inactive), the GI50 (CCRF-CEM) was > 100 µM (inactive) and the GI50 (M19-MEL) was > 100 µM (inactive). For the same molecule, the GI50 (RPMI-8226) was 89.7 µM (inactive), the GI50 (HL-60) was > 100 µM (inactive) and the GI50 (ACHN) was > 100 µM (inactive). The GI50 (OVCAR-3) was > 100 µM (inactive), the GI50 (HOP-92) was 90.2 µM (inactive) and the GI50 (RXF 393) was > 100 µM (inactive). For the same molecule, the GI50 (HOP-62) was > 100 µM (inactive), the GI50 (NCI-H226) was 89.1 µM (inactive) and the GI50 (SNB-75) was 42.9 µM (inactive). The GI50 (DMS-114) was > 100 µM (inactive), the GI50 (K562) was > 100 µM (inactive) and the GI50 (SK-MEL-2) was > 100 µM (inactive). For the same molecule, the GI50 (DMS-273) was > 100 µM (inactive), the GI50 (MOLT-4) was > 100 µM (inactive) and the GI50 (SNB-78) was > 100 µM (inactive). For the same molecule, the GI50 (NCI-H23) was > 100 µM (inactive), the GI50 (A549) was > 100 µM (inactive) and the GI50 (XF498) was 32.4 µM (inactive). The GI50 (LOX IMVI) was > 100 µM (inactive), the GI50 (SW-620) was > 100 µM (inactive) and the GI50 (SK-MEL-5) was 97.1 µM (inactive). For the same molecule, the GI50 (M14) was > 100 µM (inactive), the GI50 (CAKI-1) was > 100 µM (inactive) and the GI50 (SN12C) was > 100 µM (inactive). For the same molecule, the GI50 (HCT-116) was > 100 µM (inactive), the GI50 (LXFL 529) was > 100 µM (inactive) and the GI50 (SF-539) was > 100 µM (inactive). For the same molecule, the GI50 (IGROV-1) was > 100 µM (inactive), the GI50 (KM12) was > 100 µM (inactive) and the GI50 (KM-20L2) was > 100 µM (inactive). The GI50 (NCI-H460) was > 100 µM (inactive), the GI50 (SF-268) was > 100 µM (inactive) and the GI50 (786-0) was > 100 µM (inactive). The GI50 (COLO 205) was > 100 µM (inactive), the GI50 (NCI-H522) was > 100 µM (inactive) and the GI50 (U-251) was > 100 µM (inactive). The GI50 (Malme-3M) was > 100 µM (inactive), the GI50 (OVCAR-5) was > 100 µM (inactive) and the GI50 (DLD-1) was > 100 µM (inactive). The GI50 (EKVX) was 44.1 µM (inactive), the GI50 (HT-29) was > 100 µM (inactive) and the GI50 (OVCAR-4) was > 100 µM (inactive). The GI50 (HCT-15) was over 100 µM and the GI50 (SR) was > 100 µM (inactive).
`CN1C2CCC1/C(=C/c1cccc3c1OCO3)C(=O)/C2=C\c1cccc2c1OCO2` was tested, and the GI50 (TK-10) was 21.3 µM (inactive), the GI50 (UACC-257) was > 100 µM (inactive) and the GI50 (SK-MEL-28) was > 100 µM (inactive). For the same molecule, the GI50 (UO-31) was > 100 µM (inactive), the GI50 (HCC 2998) was > 100 µM (inactive) and the GI50 (OVCAR-8) was > 100 µM (inactive). For the same molecule, the GI50 (SK-OV-3) was 85.7 µM (inactive), the GI50 (CCRF-CEM) was 78 µM (inactive) and the GI50 (M19-MEL) was > 100 µM (inactive). The GI50 (RPMI-8226) was > 100 µM (inactive), the GI50 (HL-60) was > 100 µM (inactive) and the GI50 (SF-295) was 22.1 µM (inactive). The GI50 (ACHN) was > 100 µM (inactive), the GI50 (OVCAR-3) was 87.3 µM (inactive) and the GI50 (HOP-92) was 22.8 µM (inactive). For the same molecule, the GI50 (RXF 393) was 11.3 µM (inactive), the GI50 (HOP-62) was 12.3 µM (inactive) and the GI50 (NCI-H226) was > 100 µM (inactive). For the same molecule, the GI50 (SNB-75) was 11.1 µM (inactive), the GI50 (DMS-114) was > 100 µM (inactive) and the GI50 (K562) was > 10 µM (inactive). The GI50 (SK-MEL-2) was > 100 µM (inactive), the GI50 (DMS-273) was 45 µM (inactive) and the GI50 (MOLT-4) was > 100 µM (inactive). For the same molecule, the GI50 (NCI-H23) was > 100 µM (inactive), the GI50 (XF498) was 25.3 µM (inactive) and the GI50 (LOX IMVI) was > 100 µM (inactive). The GI50 (SW-620) was > 100 µM (inactive), the GI50 (SK-MEL-5) was 37.9 µM (inactive) and the GI50 (M14) was 59 µM (inactive). For the same molecule, the GI50 (SN12C) was > 100 µM (inactive), the GI50 (HCT-116) was > 100 µM (inactive) and the GI50 (LXFL 529) was > 100 µM (inactive). The GI50 (UACC-62) was 14.3 µM (inactive), the GI50 (IGROV-1) was 30.1 µM (inactive) and the GI50 (KM12) was > 100 µM (inactive). For the same molecule, the GI50 (KM-20L2) was > 100 µM (inactive), the GI50 (NCI-H460) was > 100 µM (inactive) and the GI50 (SF-268) was 47.6 µM (inactive). The GI50 (COLO 205) was > 100 µM (inactive), the GI50 (U-251) was 24.5 µM (inactive) and the GI50 (Malme-3M) was > 100 µM (inactive). For the same molecule, the GI50 (OVCAR-5) was > 100 µM (inactive), the GI50 (DLD-1) was > 100 µM (inactive) and the GI50 (EKVX) was > 100 µM (inactive). The GI50 (HT-29) was > 100 µM (inactive), the GI50 (HCT-15) was over 100 µM and the GI50 (SR) was > 100 µM (inactive).
